Measured values from patent US11691972B2, “Compounds for targeted degradation of BRD9” (C4 Therapeutics, Inc., priority 2020, dated 2023).

target: T1, BRD9 (Homo sapiens, UniProt Q9H8M2); experiment: HiBiT BRD9 degradation assay in 293T.166 (BRD9-HiBiT) cells; type: cell-based; design: endogenously expressing BRD9 with HiBiT fusion tag via CRISPR; host or cells: 293T.166 (BRD9-HiBiT), also expressing LgBiT ectopically; conditions: Table 1; 293T.166 cells, 2.0 hours; class symbols; read-out: HiBiT-Degradation 293T.166 BRD9 2.0 hours (DC50)
T1 sequence (Q9H8M2 1-597): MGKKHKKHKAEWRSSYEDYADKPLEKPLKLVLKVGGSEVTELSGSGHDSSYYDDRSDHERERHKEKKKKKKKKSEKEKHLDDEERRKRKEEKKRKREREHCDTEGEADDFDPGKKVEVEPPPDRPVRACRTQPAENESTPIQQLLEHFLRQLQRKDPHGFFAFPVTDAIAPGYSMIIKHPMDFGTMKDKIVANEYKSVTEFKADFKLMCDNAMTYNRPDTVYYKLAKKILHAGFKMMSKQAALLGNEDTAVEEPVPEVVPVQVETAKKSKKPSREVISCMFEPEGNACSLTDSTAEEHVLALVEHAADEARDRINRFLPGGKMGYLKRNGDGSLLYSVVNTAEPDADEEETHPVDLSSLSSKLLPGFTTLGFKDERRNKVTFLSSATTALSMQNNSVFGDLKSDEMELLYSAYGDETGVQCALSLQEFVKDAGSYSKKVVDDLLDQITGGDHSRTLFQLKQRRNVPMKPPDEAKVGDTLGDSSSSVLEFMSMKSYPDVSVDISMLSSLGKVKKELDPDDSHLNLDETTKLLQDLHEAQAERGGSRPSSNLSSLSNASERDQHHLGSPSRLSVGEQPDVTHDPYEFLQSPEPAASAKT
Description: Selected compounds were tested in a BRD9 degradation assay using the HiBit Method.
Dulbecco's modified Eagle medium (DMEM) without phenol red and fetal bovine serum (FBS) were purchased from Gibco (Grand Island, N.Y., USA). Nano-Glo® HiBiT Lytic Assay System was purchased from Promega (Madison, Wis., USA). 293T.166 (BRD9-HiBiT) cell line, endogenously expressing BRD9 with HiBiT fusion tag via CRISPR and ectopically expressing LgBiT tag, was purchased from Promega (Madison, Wis., USA). 293T.167 (BRD7-HiBiT) cell line, endogenously expressing BRD7 with HiBiT fusion tag via CRISPR and ectopically expressing LgBiT tag, was purchased from Promega (Madison, Wis., USA). 293T.92 (BRD4-HiBiT) cell line, endogenously expressing BRD4 with HiBiT fusion tag via CRISPR and ectopically expressing LgBiT tag, was generated in-house. Cell culture flasks and 384-well microplates were acquired from VWR (Radnor, Pa., USA).
BRD9 degradation was determined based on quantification of luminescent signal using Nano-Glo® HiBiT Lytic Assay kit. Test compounds were added to the 384-well plate from a top concentration of 10 μM with 11 points, half log titration in duplicates. 293T.166 cells were added into 384-well plates at a cell density of 10,000 cells per well. The plates were kept at 37° C. with 5% CO2 for 2 hours. BRD7 and BRD4 degradation was similarly determined with 293T.167 cells and 293T.92 cells, respectively. The cells treated in the absence of the test compound were the negative control and the cells without Nano-Glo® HiBiT Lytic reagent were the positive control. After 2-hour incubation, Nano-Glo® HiBiT Lytic Assay reagents were added to the cells. Luminescence was acquired on EnVision™ Multilabel Reader (PerkinElmer, Santa Clara, Calif., USA).

Q: Which DC50 does the source give for `COc1cc(-c2cn(C)c(=O)c3[nH]ncc23)cc(OC)c1CN1CC[C@@H](NC(=O)CN2CCC(c3ccc(NC4CCC(=O)NC4=O)cc3)CC2)C1` (stereo in doubt) [Compound 69, N-[1-[[2,6-dimethoxy-4-(6-methyl-7-oxo-1H-pyrazolo[3,4-c]pyridin-4-yl)phenyl]methyl]pyrrolidin-3-yl]-2-[4-[4-[(2,6-dioxo-3-piperidyl)amino]phenyl]-1-piperidyl]acetamide] here?
A: 100 to 500 nM

Q: How did the DC50 turn out when `COc1cc(-c2cn(C)c(=O)c3[nH]ncc23)cc(OC)c1CN1CCN(C(=O)CN2CCC(c3ccc(NC4CCC(=O)NC4=O)cc3)CC2)CC1` (stereo not shown) [Compound 1, 3-[4-[1-[2-[4-[[2,6-dimethoxy-4-(6-methyl-7-oxo-1H-pyrazolo[3,4-c]pyridin-4-yl)phenyl]methyl]piperazin-1-yl]-2-oxo-ethyl]-4-piperidyl]anilino]piperidine-2,6-dione] was run?
A: < 100 nM

Q: `COc1cc(-c2cn(C)c(=O)c3[nH]ncc23)cc(OC)c1CN1CCC2(CC1)CN(C(=O)CN1CCC(c3ccc(NC4CCC(=O)NC4=O)cc3)CC1)C2` (stereo not shown) [Compound 4] was tested. Which DC50 did it give?
A: < 100 nM

Q: For `COc1cc(-c2cn(C)c(=O)c3[nH]ncc23)cc(OC)c1CN1CC(NC(=O)CN2CCC(c3ccc(NC4CCC(=O)NC4=O)cc3)CC2)C1` (stereo not shown) [Compound 5], which DC50 is on record?
A: < 100 nM

Q: Which DC50 does the source give for `COc1cc(-c2cn(C)c(=O)c3[nH]ncc23)cc(OC)c1CN1CCC(NC(=O)CN2CCC(c3ccc(NC4CCC(=O)NC4=O)cc3)CC2)CC1` (stereo not shown) [Compound 6] here?
A: < 100 nM

Q: For `COc1cc(-c2cn(C)c(=O)c3[nH]ncc23)cc(OC)c1CN1CCN(C(=O)CN2CCC(c3ccc(NC4CCC(=O)NC4=O)cc3F)CC2)CC1` (stereo not shown) [Compound 7], which DC50 is on record?
A: < 100 nM

Q: How did the DC50 turn out when `COc1cc(-c2cn(C)c(=O)c3[nH]ncc23)cc(OC)c1CN1CCN(C(=O)CN2CCC(c3ccc(NC4CCC(=O)NC4=O)cc3)C(F)(F)C2)CC1` (stereo not shown) [Compound 8] was run?
A: < 100 nM

Q: How did the DC50 turn out when `COc1cc(-c2cn(C)c(=O)c3[nH]ncc23)cc(F)c1CN1CCN(C(=O)CN2CCC(c3ccc(NC4CCC(=O)NC4=O)cc3)CC2)CC1` (stereo not shown) [Compound 9] was run?
A: < 100 nM

Q: For `COc1cc(-c2cn(C)c(=O)c3[nH]ncc23)cc(OC)c1CN1CCN(C(=O)CN2CCC(c3ccc(NC4CCC(=O)NC4=O)c(Cl)c3)CC2)CC1` (stereo not shown) [Compound 10], which DC50 is on record?
A: < 100 nM

Q: `COc1cc(-c2cn(C)c(=O)c3[nH]ncc23)cc(OC)c1CN1CCN(C(=O)CN2CCC(c3ccc(NC4CCC(=O)NC4=O)cc3C(F)F)CC2)CC1` (stereo not shown) [Compound 11] was tested. Which DC50 did it give?
A: < 100 nM

Q: With `COc1cc(-c2cn(C)c(=O)c3[nH]ncc23)cc(Cl)c1CN1CCN(C(=O)CN2CCC(c3ccc(NC4CCC(=O)NC4=O)cc3)CC2)CC1` (stereo not shown) [Compound 12] as the compound, how does the DC50 read?
A: < 100 nM

Q: For `COc1cc(-c2cn(C)c(=O)c3[nH]ncc23)cc(OC)c1CN1C[C@@H]2C[C@H]1CN2C(=O)CN1CCC(c2ccc(NC3CCC(=O)NC3=O)cc2)CC1` (stereo partly shown) [Compound 13], which DC50 is on record?
A: < 100 nM

Q: `COc1cc(-c2cn(C)c(=O)c3[nH]ncc23)cc(OC)c1CN1C[C@H]2C[C@@H]1CN2C(=O)CN1CCC(c2ccc(NC3CCC(=O)NC3=O)cc2)CC1` (stereo partly shown) [Compound 14] was tested. Which DC50 did it give?
A: < 100 nM

Q: With `COc1cc(-c2cn(C)c(=O)c3cnccc23)cc(OC)c1CN1CCN(C(=O)CN2CCC(c3ccc(NC4CCC(=O)NC4=O)cc3)CC2)CC1` (stereo not shown) [Compound 15] as the compound, how does the DC50 read?
A: < 100 nM

Q: `COc1cc(-c2cn(C)c(=O)c3[nH]ncc23)cc(OC)c1CN1CCN(C(=O)CN2CCC(c3ccc(C4CCC(=O)NC4=O)cc3)CC2)CC1` (stereo not shown) [Compound 16] was tested. Which DC50 did it give?
A: < 100 nM

Q: `COc1cc(-c2cn(C)c(=O)c3[nH]ncc23)cc(OC)c1CN1CCN(C(=O)CN2CCC(c3c(F)cc(NC4CCC(=O)NC4=O)cc3F)CC2)CC1` (stereo not shown) [Compound 17] was tested. Which DC50 did it give?
A: < 100 nM

Q: Which DC50 does the source give for `COc1cc(-c2cn(C)c(=O)c3[nH]ncc23)cc(OC)c1CN1CCN(C(=O)CN2CCC(c3ccc(NC4CCC(=O)NC4=O)cc3C(F)(F)F)CC2)CC1` (stereo not shown) [Compound 18] here?
A: < 100 nM

Q: Which DC50 does the source give for `COc1cc(-c2cn(C)c(=O)c3[nH]ncc23)c(Cl)cc1CN1CCN(C(=O)CN2CCC(c3ccc(NC4CCC(=O)NC4=O)cc3)CC2)CC1` (stereo not shown) [Compound 19] here?
A: < 100 nM

Q: How did the DC50 turn out when `Cn1cc(-c2ccc(CN3CCN(C(=O)CN4CCC(c5ccc(NC6CCC(=O)NC6=O)cc5)CC4)CC3)c(OC(F)(F)F)c2)c2cn[nH]c2c1=O` (stereo not shown) [Compound 20] was run?
A: < 100 nM
